Measurements published in ChEMBL document CHEMBL1201862, “PubChem BioAssay data set” (2004).
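Interpolation was linear, between the two tested concentrations surrounding the appropriate level; five concentrations were tested over 48 hours in 96-well plates. GI50: concentration for 50% inhibition of growth.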 Active and inactive are the calls of the source. Cut-off read from the data, not from the text of the source: active = GI50 up to about 1.1 µM and inactive = higher.

Key:
Assay in all cases: inhibition of tumour cell growth, NCI panel, 48 h
M19-MEL = system: M19-MEL
Malme-3M = system: Malme-3M
OVCAR-3 = system: OVCAR-3
SNB-19 = system: SNB-19
RXF 631 = system: RXF 631
RXF 393 = system: RXF 393
UO-31 = system: UO-31
SK-MEL-2 = system: SK-MEL-2
OVCAR-5 = system: OVCAR-5
M14 = system: M14
OVCAR-4 = system: OVCAR-4
NCI-H522 = system: NCI-H522
NCI-H23 = system: NCI-H23
KM12 = system: KM12
CAKI-1 = system: CAKI-1
K562 = system: K562
U-251 = system: U-251
HCT-15 = system: HCT-15
IGROV-1 = system: IGROV-1
SK-OV-3 = system: SK-OV-3
MOLT-4 = system: MOLT-4
SR = system: SR
HOP-92 = system: HOP-92
TK-10 = system: TK-10
DLD-1 = system: DLD-1
XF498 = system: XF498
OVCAR-8 = system: OVCAR-8
HCC 2998 = system: HCC 2998
HT-29 = system: HT-29
SN12C = system: SN12C
SNB-78 = system: SNB-78
SK-MEL-28 = system: SK-MEL-28
SK-MEL-5 = system: SK-MEL-5
COLO 205 = system: COLO 205
SW-620 = system: SW-620
UACC-62 = system: UACC-62
KM-20L2 = system: KM-20L2
SF-295 = system: SF-295
CCRF-CEM = system: CCRF-CEM
EKVX = system: EKVX
ACHN = system: ACHN
RPMI-8226 = system: RPMI-8226
SF-539 = system: SF-539
LXFL 529 = system: LXFL 529
HL-60 = system: HL-60
NCI-H226 = system: NCI-H226
HCT-116 = system: HCT-116
HOP-18 = system: HOP-18
DMS-114 = system: DMS-114
A498 = system: A498
DMS-273 = system: DMS-273
HOP-62 = system: HOP-62
SNB-75 = system: SNB-75
NCI-H460 = system: NCI-H460
LOX IMVI = system: LOX IMVI
SF-268 = system: SF-268
UACC-257 = system: UACC-257
NCI/ADR-RES = system: NCI/ADR-RES
MDA-MB-435 = system: MDA-MB-435
DU-145 = system: DU-145
Hs-578T = system: Hs-578T
BT-549 = system: BT-549
MCF7 = system: MCF7
MDA-N = system: MDA-N
T47D = system: T47D
PC-3 = system: PC-3
786-0 = system: 786-0
A549 = system: A549
MDA-MB-231 = system: MDA-MB-231

Measured: GI50

COc1ccccc1/C=C1\N=C(C)OC1=O
inactive: M19-MEL > 100 µM | Malme-3M > 100 µM | OVCAR-3 > 100 µM | SNB-19 > 100 µM | RXF 631 > 100 µM | RXF 393 > 100 µM | UO-31 > 100 µM | SK-MEL-2 > 100 µM | OVCAR-5 > 100 µM | M14 > 100 µM | OVCAR-4 > 100 µM | NCI-H522 > 100 µM | NCI-H23 > 100 µM | KM12 > 100 µM | CAKI-1 > 100 µM | K562 > 100 µM | U-251 > 100 µM | IGROV-1 > 100 µM | SK-OV-3 > 100 µM | MOLT-4 > 100 µM | SR > 100 µM | HOP-92 > 100 µM | TK-10 > 100 µM | DLD-1 > 100 µM | XF498 > 100 µM | OVCAR-8 > 100 µM | HCC 2998 > 100 µM | HT-29 > 100 µM | SN12C > 100 µM | SNB-78 > 100 µM | SK-MEL-28 > 100 µM | SK-MEL-5 > 100 µM | COLO 205 > 100 µM | SW-620 > 100 µM | UACC-62 > 100 µM | KM-20L2 > 100 µM | SF-295 > 100 µM | CCRF-CEM 56 µM
> 100 µM: HCT-15

COc1ccc(/C(Cl)=C(\C=O)c2ccc(F)cc2)cc1
inactive: M19-MEL 15 µM | EKVX 16.9 µM | Malme-3M 13.7 µM | OVCAR-3 19.1 µM | ACHN 6.14 µM | RPMI-8226 4.49 µM | SF-539 15.5 µM | LXFL 529 6.27 µM | SNB-19 17.9 µM | RXF 631 19.8 µM | UO-31 8.15 µM | SK-MEL-2 8.83 µM | M14 12.9 µM | HL-60 2.72 µM | NCI-H226 11.7 µM | HCT-116 5.08 µM | NCI-H522 4.06 µM | NCI-H23 14.8 µM | CAKI-1 8.18 µM | K562 4.78 µM | U-251 6.58 µM | HOP-18 6.58 µM | DMS-114 7.55 µM | IGROV-1 18.9 µM | SK-OV-3 40 µM | MOLT-4 3.56 µM | A498 17.4 µM | HOP-92 4.29 µM | TK-10 33.1 µM | DMS-273 14.9 µM | DLD-1 8.17 µM | OVCAR-8 10.8 µM | HOP-62 9.59 µM | HT-29 7.41 µM | SN12C 9.98 µM | SNB-78 7.53 µM | SNB-75 2.27 µM | NCI-H460 4.46 µM | SK-MEL-28 16.7 µM | SK-MEL-5 9.06 µM | COLO 205 16.6 µM | LOX IMVI 7.03 µM | SW-620 6.81 µM | UACC-62 9.08 µM | KM-20L2 6.87 µM | SF-295 8.43 µM | SF-268 8.36 µM | CCRF-CEM 3.14 µM
4.24 µM: HCT-15

O=C(CNc1ccc2c(=S)c3ccccc3[nH]c2c1)Nc1ccccc1-c1ccccc1NC(=O)CNc1ccc2c(=S)c3ccccc3[nH]c2c1
19.4 µM: HCT-15
inactive: M19-MEL > 39.2 µM | EKVX 24.4 µM | Malme-3M 15.7 µM | OVCAR-3 24.8 µM | ACHN 15.8 µM | UACC-257 21 µM | RPMI-8226 8.75 µM | SF-539 24.7 µM | LXFL 529 7.45 µM | SNB-19 17.2 µM | RXF 393 27 µM | UO-31 15.3 µM | SK-MEL-2 15.6 µM | NCI/ADR-RES 31.2 µM | OVCAR-5 28.7 µM | M14 16.3 µM | OVCAR-4 3.94 µM | HL-60 2.99 µM | NCI-H226 26 µM | MDA-MB-435 24 µM | HCT-116 18.5 µM | NCI-H522 6.38 µM | NCI-H23 13.8 µM | DU-145 18.3 µM | KM12 18.5 µM | Hs-578T 29.2 µM | CAKI-1 30.1 µM | K562 2.85 µM | U-251 19.6 µM | HOP-18 16.1 µM | DMS-114 17.1 µM | IGROV-1 20.2 µM | SK-OV-3 26.3 µM | MOLT-4 3.96 µM | A498 25.2 µM | SR 6.01 µM | BT-549 23.8 µM | HOP-92 23 µM | TK-10 26.1 µM | DMS-273 > 46 µM | DLD-1 11 µM | XF498 19.1 µM | OVCAR-8 23.9 µM | HCC 2998 15.1 µM | MCF7 16.4 µM | HOP-62 24.3 µM | HT-29 19.7 µM | SN12C 22.2 µM | SNB-78 32.9 µM | MDA-N 18.1 µM | SNB-75 26.5 µM | NCI-H460 17.1 µM | SK-MEL-28 21.9 µM | SK-MEL-5 15.2 µM | T47D 15.6 µM | COLO 205 11.9 µM | LOX IMVI 19.9 µM | SW-620 18.4 µM | PC-3 19.4 µM | 786-0 13.1 µM | A549 24.3 µM | UACC-62 18.2 µM | KM-20L2 19.7 µM | SF-295 21.2 µM | SF-268 22 µM | MDA-MB-231 22.7 µM | CCRF-CEM 2.73 µM
